Measured values taken from US10435392B2, “Bipyrazole derivatives as JAK inhibitors” (Incyte Corporation, priority 2013, dated 2019).
Counter-ions that a name gives are not always drawn.

Test system: human JAK1
Experiment: In vitro JAK kinase assay (HTRF, phosphorylation of a biotinylated peptide), JAK1
Type: biochemical
Conditions: ratio of IC50 values at 1 mM ATP
Experimental: The catalytic activity of JAK1, JAK2 or JAK3 was assayed by measuring the phosphorylation of a biotinylated peptide. The phosphorylated peptide was detected by homogenous time resolved fluorescence (HTRF). […] Reactions were carried out at room temperature for 1 hour and then stopped with 20 μL 45 mM EDTA, 300 nM SA-APC, 6 nM Eu-Py20 in assay buffer (Perkin Elmer, Boston, Mass.). Binding to the Europium labeled antibody took place for 40 minutes and HTRF signal was measured on a Fusion plate reader (Perkin Elmer, Boston, Mass.).

JAK2/JAK1, >10:
Cc1[nH]ncc1-c1cnn(C2(CC#N)CN(c3cnc(C(=O)N[C@@H](C)C(F)(F)F)cn3)C2)c1 [Example 1, 5-[3-(Cyanomethyl)-3-(3′-methyl-1H,1′H-4,4′-bipyrazol-1-yl)azetidin-1-yl]-N-[(1S)-2,2,2-trifluoro-1-methylethyl]pyrazine-2-carboxamide trifluoroacetate]
Cc1n[nH]cc1-c1cnn(C2(CC#N)CN(c3cnc(C(=O)NC(C)C)cn3)C2)c1 [Example 2, 5-[3-(Cyanomethyl)-3-(3′-methyl-1H,1′H-4,4′-bipyrazol-1-yl)azetidin-1-yl]-N-isopropylpyrazine-2-carboxamide Trifluoroacetate]
Cc1n[nH]cc1-c1cnn(C2(CC#N)CN(c3ccc(C(=O)NC(C)C)cc3)C2)c1 [Example 3, 4-[3-(Cyanomethyl)-3-(3′-methyl-1H,1′H-4,4′-bipyrazol-1-yl)azetidin-1-yl]-N-isopropylbenzamide Trifluoroacetate]
C[C@H](NC(=O)c1cc(F)c(N2CC(CC#N)(n3cc(-c4cn[nH]c4)cn3)C2)cc1F)C(F)(F)F [Example 5, 4-[3-(1H,1′H-4,4′-Bipyrazol-1-yl)-3-(cyanomethyl)azetidin-1-yl]-2,5-difluoro-N-[(1S)-2,2,2-trifluoro-1-methylethyl]benzamide Trifluoroacetate]
Cc1n[nH]cc1-c1cn(C2(CC#N)CN(c3cnc(C(=O)NC(C)C)cn3)C2)nc1C [Example 6, 5-[3-(Cyanomethyl)-3-(3,3′-dimethyl-1H,1′H-4,4′-bipyrazol-1-yl)azetidin-1-yl]-N-isopropylpyrazine-2-carboxamide Trifluoroacetate]
Cc1n[nH]c(C)c1-c1cnn(C2(CC#N)CN(c3cnc(C(=O)N[C@@H](C)C(F)(F)F)cn3)C2)c1 [Example 9, 5-[3-(Cyanomethyl)-3-(3′,5′-dimethyl-1H,1′H-4,4′-bipyrazol-1-yl)azetidin-1-yl]-N-[(1S)-2,2,2-trifluoro-1-methylethyl]pyrazine-2-carboxamide Trifluoroacetate]
Cc1n[nH]cc1-c1cn(C2(CC#N)CN(c3cc(F)c(C(=O)N[C@@H](C)C(F)(F)F)cc3F)C2)nc1CO [Example 13, 4-{3-(Cyanomethyl)-3-[3-(hydroxymethyl)-3′-methyl-1H,1′H-4,4′-bipyrazol-1-yl]azetidin-1-yl}-2,5-difluoro-N-[(1S)-2,2,2-trifluoro-1-methylethyl]benzamide]
